# From patent publication US6589996B2, “Treatment of disorders relating to the serotonergic system” (Orion Corporation, priority 2000, dated 2003)
# Read-outs that look alike come from different tables or passages of the source.
# Assays:
# [1] = target: serotonin 5-HT2C-receptor (Homo sapiens, UniProt P28335); conditions: cited from earlier work
# mice [2] = conditions: single subcutaneous administration, 3 mg/kg; cited from earlier work
# [3] = rats, 3 mg/kg, cited from earlier work
# [4] = system: anxiety, specifically GAD; assay: randomised placebo-controlled double-blind study in GAD: anxiety symptoms (HAM-A, CGI); format: in vivo, human; conditions: for CGI severity of illness: percentage of patients not ill or very mildly ill: after 8 weeks
# Method: (§1) The efficacy of deramciclane in the treatment of anxiety, specifically GAD, was studied in a randomised placebo-controlled double-blind study. In addition, the dosage-dependency of the effects of deramciclane was evaluated. A total of 208 patients were included in the study. The subjects were randomly assigned to four parallel groups to receive one tablet twice daily (b.i.d) of a placebo, 5 mg (=10 mg/day), 15 mg (=30 mg/day), or 30 mg (=60mg/day) deramciclane. The study started with a one-week placebo run-in period, followed by an eight-week placebo-controlled active treatment and a two-week placebo washout period.
# The efficacy of deramciclane on anxiety symptoms was studied by the efficacy variable Hamilton Anxiety Scale (HAM-A), analyzing the change in the score and using responder criterion (at least 50% reduction in HAM-A total score). The Clinical Global Impression (GCI) scale was also used for analyzing the efficacy of deramciclane on anxiety symptoms.
# rats [5] = conditions: single intraperitoneal administration; cited from earlier work
# [6] = human, cited from earlier work
# serotonin 5HT2A-receptor = serotonin 5HT2A-receptor (Homo sapiens, UniProt P28223); conditions: cited from earlier work
# serotonin 5HT2A-receptor, sequence (P28223 whole entry): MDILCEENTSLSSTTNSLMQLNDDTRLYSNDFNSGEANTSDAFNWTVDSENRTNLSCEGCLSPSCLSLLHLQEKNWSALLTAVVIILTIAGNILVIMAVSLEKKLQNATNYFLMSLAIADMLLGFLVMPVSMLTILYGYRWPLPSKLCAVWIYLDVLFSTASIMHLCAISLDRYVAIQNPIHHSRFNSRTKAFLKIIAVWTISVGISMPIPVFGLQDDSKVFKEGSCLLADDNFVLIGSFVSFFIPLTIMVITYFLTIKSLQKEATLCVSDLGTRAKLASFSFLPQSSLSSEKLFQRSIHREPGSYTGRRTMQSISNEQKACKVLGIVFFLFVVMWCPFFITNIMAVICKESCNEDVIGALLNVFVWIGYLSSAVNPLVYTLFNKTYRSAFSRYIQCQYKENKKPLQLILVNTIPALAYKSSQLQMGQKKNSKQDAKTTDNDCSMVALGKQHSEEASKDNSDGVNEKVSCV
# depressive symptoms = assay: randomised placebo-controlled double-blind study in GAD: depressive symptoms (MADRS); format: in vivo, human
# Method: as §1
# The efficacy of deramciclane on depressive symptoms was studied using the Montgomery Asberg Depression Rating Scale (MADRS).
# withdrawal symptoms = assay: randomised placebo-controlled double-blind study in GAD: Physician's Withdrawal Checklist (PWC); format: in vivo, human
# Method: as §1
# After stopping the above-described 8-week treatment period, no discontinuation effects were seen (measured by the Physician's Withdrawal Checklist, PWC). This is different and surprising from the experiences with the most other efficacious drugs used for the treatment of anxiety.
# [7] = human, in vivo
# Method: In a comparative pharmacokinetic study of orally administered deramciclane in rats, dogs, rabbits and humans (Klebovich et al Pharm. Pharmacol. Commun., 4:129-136, 1998), it was shown that the plasma concentration curves obtained after the administration of a single 3 mg/kg oral dose of deramciclane to rats (dogs, rabbits) and human show considerable species specific differences. […] Thus a 40-times lower oral dose of deramciclane could be used in man to result in the same maximal plasma concentration as in rat. […] Thus, over 300 times lower oral doses should result in equal exposure in humans than in rats. Basing only the Cmax difference between rat and man, it can be predicted that considerably lower doses should be centrally active in humans than in rat. The minimum oral effective anti-anxiety dose in rats was 1 mg/kg (1-30 mg/kg the full range; see above), i.e. in a 70 kg-man this would mean 70 mg dose. […] This would result in 70 mg/40=1.75 mg (i.e. 0.025 mg/kg) as an effective dose in man.
# [8] = rat, single oral administration; cited from earlier work
# [9] = target: T1, serotonin 5-HT2A-receptors in frontal cortex (Homo sapiens, UniProt P28223); conditions: human brain, single oral dose; cited from earlier work
# T1 construct: serotonin 5-HT2A-receptors in frontal cortex of healthy male volunteers; from tissue; host or cells: frontal cortex of living healthy male volunteers (in vivo)
# T1 sequence (P28223 whole entry): as above
# mice [10] = conditions: oral doses 48-160 mg/kg; cited from earlier work
# rats [11] = conditions: cited from earlier work
# [12] = human, cited from earlier work; for Cmin and Cmax range: repeated administration for one week
# rats [13] = conditions: cited from earlier work; remark: listed apart in the source
# rats [14] = conditions: oral doses of 25 and 100 mg/kg; cited from earlier work
# rats [15] = conditions: intraperitoneally 1 or 10 mg/kg, 8 times, twice a day; cited from earlier work
# serotonin 5-HT2C-receptor, sequence (P28335 33-458): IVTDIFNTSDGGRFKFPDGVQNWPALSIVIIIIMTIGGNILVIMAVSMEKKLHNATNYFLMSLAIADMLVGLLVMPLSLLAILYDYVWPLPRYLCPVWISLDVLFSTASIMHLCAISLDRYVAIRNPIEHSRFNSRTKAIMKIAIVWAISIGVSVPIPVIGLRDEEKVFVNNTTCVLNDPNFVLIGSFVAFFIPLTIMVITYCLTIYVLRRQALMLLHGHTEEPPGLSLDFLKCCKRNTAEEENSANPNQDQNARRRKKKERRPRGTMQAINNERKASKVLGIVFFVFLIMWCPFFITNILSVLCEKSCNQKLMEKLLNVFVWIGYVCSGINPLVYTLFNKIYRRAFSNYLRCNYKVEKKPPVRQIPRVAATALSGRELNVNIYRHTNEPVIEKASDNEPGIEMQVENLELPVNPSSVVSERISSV
compound,measurement,setting,value
"CN(C)CCO[C@]1(c2ccccc2)C[C@H]2CC[C@]1(C)C2(C)C [deramciclane, (1R,2S,4R)-(−)-2-[N,N-(dimethylaminoethoxy)]-2-phenyl-1,7,7-trimethyl-bicyclo [2.2.1]heptane]",antagonism of the receptor,[1],potent antagonist
same,binding affinity,[1]; in vitro,high affinity
same,activity in two compartment test,mice [2],active
same,radioactivity in organs including blood and the brain,[3]; intravenous administration,high radioactivity
same,"radioactivity in organs, especially the brain","[3]; oral administration, compared with intravenous",substantially lower
same,"HAM-A score, difference from placebo","[4]; 5 mg b.i.d, 8 weeks",No difference
same,CGI severity of illness: percentage of patients not ill or very mildly ill,[4]; 5 mg b.i.d,49%
same,responders (at least 50% reduction in HAM-A total score),"[4]; 5 mg b.i.d., n=31",57%
same,HAM-A score decrease from baseline,"[4]; 15 mg b.i.d, 8 weeks, p=0.006 vs placebo",14.5 points
same,CGI severity of illness: percentage of patients not ill or very mildly ill,[4]; 15 mg b.i.d,55%
same,responders (at least 50% reduction in HAM-A total score),"[4]; 15 mg b.i.d., n=39, p=0.020 vs placebo",76%
same,CGI severity of illness: percentage of patients not ill or very mildly ill,"[4]; 30 mg b.i.d, p=0.030",61%
same,HAM-A score decrease from baseline,"[4]; 30 mg b.i.d., 8 weeks, not significant vs placebo",14.5 points
same,responders (at least 50% reduction in HAM-A total score),"[4]; 30 mg b.i.d., n=37",70%
same,effect on social interaction time,rats [5],enhanced the social interaction time
same,minimum effective dose,rats [5],0.7 mg/kg
same,Cmax,[6]; single 3 mg/kg oral dose,217.5 ng/mL
same,mean AUC 0-∞,[6]; single oral administration,3737.8 ng·h/mL
same,antagonism of the receptor,serotonin 5HT2A-receptor,potent antagonist
same,binding affinity,serotonin 5HT2A-receptor; in vitro,high affinity
same,effect on MADRS score,depressive symptoms; 5 mg b.i.d,ineffective
same,MADRS score decrease,"depressive symptoms; 15 mg b.i.d, p=0.028",7.7 points
same,MADRS score decrease,"depressive symptoms; 30 mg b.i.d, p=0.016",8.0 points
same,"PWC value, Mean (SD)","withdrawal symptoms; 5 mg b.i.d., after 2 week wash-out",9 (8)
same,"PWC value, Mean (SD)","withdrawal symptoms; 5 mg b.i.d., after 8 week treatment",9 (7)
same,"PWC value, Mean (SD)","withdrawal symptoms; 15 mg b.i.d., after 2 week wash-out",8 (7)
same,"PWC value, Mean (SD)","withdrawal symptoms; 15 mg b.i.d., after 8 week treatment",7 (8)
same,"PWC value, Mean (SD)","withdrawal symptoms; 30 mg b.i.d., after 2 week wash-out",8 (7)
same,"PWC value, Mean (SD)","withdrawal symptoms; 30 mg b.i.d., after 8 week treatment",8 (8)
same,withdrawal symptoms after abrupt discontinuation,withdrawal symptoms; after 8-week treatment,did not cause any withdrawal symptoms
same,factor by which oral dose in man is lower for the same maximal plasma concentration as in rat,[7],40 times
same,factor by which oral dose is lower for equal exposure in humans than in rats,[7]; rat,over 300 times
same,mean AUC 0-∞,[8],11.9 ng·h/mL
same,plasma concentration at 50% 5HT2A-receptor occupancy,[9],~21 ng/mL
same,plasma concentration at 90% 5HT2A-receptor occupancy,[9],about 70 ng/ml
same,effect on tetrabenazine-induced ptosis,mice [10],negligible
same,minimum oral effective anti-anxiety dose,rats [11]; oral,1 mg/kg
same,activity in punished drinking test,"rats [11]; single oral administration, 1 mg/kg and 10 mg/kg",active
same,Cmin and Cmax range,[12]; 20 mg daily,16 to 33 ng/mL
same,Cmin and Cmax range,[12]; 60 mg daily,48 to 91 ng/mL
same,Cmax,[12]; single oral 20 mg,24 ± 9.4 ng/mL
same,Cmax,[12]; single oral 30 mg,27 ± 6.1 ng/mL
same,effect on caerulein-induced decrease in exploratory behavior,rats [13]; intraperitoneal dose of 0.5 mg/kg,able to attenuate
same,effect in elevated plus maze test,"rats [13]; rats, single intraperitoneal doses 0.1 mg/kg-5 mg/kg",totally ineffective
same,effect in forced swimming test,rats [14],clearly ineffective
same,effect on helpless behaviour induced by inescapable electric foot shocks,rats [15],dose dependently attenuated helpless behaviour
